Key:
[1] = target: T1, PPARδ (Homo sapiens, UniProt Q03181); assay: Transfection assay for PPARδ receptors (PPAR-Gal4 / Gal4-luciferase reporter in HEK293 cells); type: cell-based; details: unbracketed values, PPARδ standard FI = 36.1
T1 sequence (Q03181 171-441 limits assumed): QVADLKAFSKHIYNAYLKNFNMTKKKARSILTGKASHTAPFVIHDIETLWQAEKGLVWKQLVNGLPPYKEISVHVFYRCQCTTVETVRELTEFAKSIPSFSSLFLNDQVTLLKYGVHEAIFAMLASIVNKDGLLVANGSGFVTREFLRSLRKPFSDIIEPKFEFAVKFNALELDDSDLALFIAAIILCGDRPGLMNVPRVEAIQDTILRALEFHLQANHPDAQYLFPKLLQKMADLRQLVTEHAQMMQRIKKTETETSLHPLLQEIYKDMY
Description: HEK293 cells were grown in DMEM/F-12 Media supplemented with 10% FBS and glutamine (GIBCOBRL). The cells were co-transfected with DNA for PPAR-Gal4 receptor and Gal4-Luciferase Reporter using the DMRIE-C Reagent. On the following day, the DNA-containing medium were replaced with 5% Charcoal treated FBS growth medium. After six hours, cells were seeded in 96 well plate and incubated at 37° C. in CO2 incubator overnight. Cells were challenged by test compounds and incubated for 24 hours at 37° C. in 5% CO2 incubator. Luciferase activity was assayed using the Steady-Glo Luciferase Assay Kit from Promega. DMRIE-C Reagent was purchased from GIBCO Cat. No. 10459-014. OPTI-MEM I Reduced Serum Medium was purchased from GIBCO Cat. No. 31985. Steady-Glo Luciferase Assay Kit was obtained from Promega Part# E254B.

[2] = target: T2, PPARγ (Homo sapiens, UniProt P37231); assay: aP2 assay for PPAR gamma agonists (bDNA aP2 mRNA in preadipocytes); type: cell-based; details: unbracketed values; PPARγ standard FI = 70.3
T2 construct: Following the challenge of the preadipocytes, cells may be lysed with lysis buffer; endogenous in cells; host or cells: preadipocytes
T2 sequence (P37231 1-505): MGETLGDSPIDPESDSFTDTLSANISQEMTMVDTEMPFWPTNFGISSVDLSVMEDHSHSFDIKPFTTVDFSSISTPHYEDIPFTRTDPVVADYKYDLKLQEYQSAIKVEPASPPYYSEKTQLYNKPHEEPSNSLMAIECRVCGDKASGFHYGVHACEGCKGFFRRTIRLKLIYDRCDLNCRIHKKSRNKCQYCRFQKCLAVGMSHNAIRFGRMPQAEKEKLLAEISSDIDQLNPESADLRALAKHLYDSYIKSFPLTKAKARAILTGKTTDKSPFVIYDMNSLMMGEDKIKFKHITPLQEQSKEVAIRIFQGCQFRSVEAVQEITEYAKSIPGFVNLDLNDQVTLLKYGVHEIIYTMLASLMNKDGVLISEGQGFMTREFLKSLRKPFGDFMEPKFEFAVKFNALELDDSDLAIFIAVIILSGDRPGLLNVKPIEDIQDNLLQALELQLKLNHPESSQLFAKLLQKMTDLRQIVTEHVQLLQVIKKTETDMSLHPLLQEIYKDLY
Description: The procedure is described in detail in Burris et al., Molecular Endocrinology, 1999, 13:410, which is hereby incorporated by reference in its entirety, and aP2 assay results of agonist intrinsic activity may be presented as fold increase over vehicle in induction of aP2 mRNA production.
Twenty-four hours after the initial seeding of the 96-well plates by hand (around 20,000/well), the differentiation assay may be initiated. Medium may be removed and replaced with 150 μl of differentiation medium containing vehicle (DMSO) or test compounds. Cells may be returned to incubator for 24 hours culture. At the termination of the challenge, medium may be removed and 100 ul of lysis buffer may be added to initiate the bDNA aP2 mRNA assay. The branched DNA assay may be performed according to the manufacturer's protocol (Bayer Diagnostics; Emeryville, Calif.). Result may be expressed as the fold increase of aP2 mRNA production activated over vehicle controls. EC50's and Emax may be determined by non-linear regression with a sigmoidal fit curve.
Following the challenge of the preadipocytes, cells may be lysed with lysis buffer (Bayer Diagnostics) containing the aP2 oligonucleotides. After a 15 minute incubation at 53° C. or 30 minutes at 37° C. incubator, 70 ul of the lysis buffer from each well may be added to a corresponding capture well (preincubated with 70 ul of blocking buffer (Bayer Diagnostics)). The capture plate may be incubated overnight at 53° C. in a plate incubator (Bayer Diagnostics). After this incubation, the bDNA and labeled probes may be annealed as directed by the manufacturer. Following a 30-minute incubation with the luminescent alkaline phosphatase substrate, dioxitane, the luminescence may be quantitated in a Dynex MLX microtiter plate luminometer. Oligonucleotide probes designed to anneal to the aP2 mRNA and function in the bDNA mRNA detection system are designed with ProbeDesigner software (Bayer Diagnostics). This software package analyzes a target sequence of interest with a series of algorithms in order to determine which regions of the sequence can perform as locations for capture, label, or spacer probe annealing. The sequences of the oligonucleotides are as follows: […]

[3] = system: ob/ob mice; assay: 11 day oral dosing in female ob/ob mice: serum TG, glucose, insulin; type: in vivo; details: 1.0 mpk, oral once daily 11 days, % change vs vehicle
Description: (Female ob/ob mice (C57 BU6J-Lep^ob, Jackson Labs, Bar Harbor, Me.), 7 weeks of age, were housed two per cage in solid-bottomed shoe box cages. Room temperature was maintained at 68-72° F. and humidity at 50-65%. Room lighting was on a 12-hour light/12-hour dark cycle. Mice were fed a certified NIH Rat and Mouse diet #5K50 (P M I Nutrition Int'l, St. Louis, Mo., via W. F. Fisher and Son, Inc., Bound Brook, N.J.). Food and water were supplied ad libitum.
The compound was prepared as suspensions in 0.5% hydroxypropyl-methylcellulose (Dow Chemical, Midland, Mich.). The dosing volume was 10 mL/kg of body weight. Female ob/ob diabetic mice (8/group) were orally gavaged once daily for 11 days with either 0.5% methylcellulose in dH2O (vehicle) or PPAR agonist at 0.003, 0.01, 0.03, 0.1, 0.3, 1 mg/kg/day. Body weight was measured in the mornings on Day 1, prior to dosing, and on Day 12 before bleeding. 18 hours after the final dose for each group, the mice were anesthetized with CO2/O2 (70%:30%) and bled by retro-orbital sinus puncture into micro-tubes containing clog activator and then put in ice. The serum samples were prepared by centrifugation. Serum glucose and triglycerides were determined by using COBAS Mira Plus blood chemistry analyzer (Roche Diagnostics, N.J.). Serum insulin and free fatty acids were measured by using ALPCO insulin ELISA kit and Wako NEFA kit, respectively. […]

SMILES	PPARδ FI (fold induction) [1]	PPARγ FI (fold induction) [2]	Δ Plasma Glucose [3]	Δ Plasma Insulin [3]
CCN(C(=O)Nc1ccc(OC(F)(F)F)cc1)C1Cc2ccc(SC(C)(C)C(=O)O)cc2C1 (stereo not drawn) [Example 2, 2-{2-[1-Ethyl-3-(4-trifluoromethoxyphenyl)ureido]indan-5-ylsulfanyl}-2-methylpropionic acid]	4.2	0.24		
CCN(C(=O)Nc1ccc(SC(F)(F)F)cc1)C1Cc2ccc(SC(C)(C)C(=O)O)cc2C1 (stereo not drawn) [Example 4, 2-{2-[1-Ethyl-3-(4-trifluoromethylsulfanylphenyl)ureido]indan-5-ylsulfanyl}-2-methylpropionic acid]		3.7		
CCCCCN(C(=O)Nc1ccc(-c2ccccc2)cc1)C1Cc2ccc(SC(C)(C)C(=O)O)cc2C1 (stereo not drawn) [Example 12, 2-[2-(3-Biphenyl-4-yl-1-pentylureido)indan-5-ylsulfanyl]-2-methylpropionic acid]		11		
CCCN(C(=O)Nc1ccc(OC(F)(F)F)cc1)C1Cc2ccc(SC(C)(C)C(=O)O)cc2C1 (stereo not drawn) [Example 16, 2-Methyl-2-{2-[1-propyl-3-(4-trifluoromethoxyphenyl)ureido]indan-5-ylsulfanyl}propionic acid]		0.37		
CCCCN(C(=O)Nc1ccc(SC(F)(F)F)cc1)C1Cc2ccc(SC(C)(C)C(=O)O)cc2C1 (stereo not drawn) [Example 17, 2-Methyl-2-{2-[1-butyl-3-(4-trifluoromethylsulfanylphenyl)ureido]indan-5-ylsulfanyl}propionic acid]		0.43		
CC(C)(Sc1ccc2c(c1)CC(NC(=O)Nc1ccc(OC(F)(F)F)cc1)C2)C(=O)O (stereo not drawn) [Example 18, 2-Methyl-2-{2-[3-(4-trifluoromethoxyphenyl)ureido]indan-5-ylsulfanyl}propionic acid]		0.31		
CC(C)CCN(C(=O)Nc1ccc(OC(F)(F)F)cc1)C1Cc2ccc(SC(C)(C)C(=O)O)cc2C1 (stereo not drawn) [Example 20, 2-Methyl-2-{2-[1-(3-methylbutyl)-3-(4-trifluoromethoxyphenyl)ureido]indan-5-ylsulfanyl}-2-methylpropionic acid]		0.44		
CCN(C(=O)Nc1ccc(OC(F)(F)F)cc1)C1CCc2cc(SC(C)(C)C(=O)O)c(F)cc2C1 (stereo not drawn) [Example 50, 2-{6-[1-Ethyl-3-(4-trifluoromethoxyphenyl)ureido]-3-fluoro-5,6,7,8-tetrahydronaphthalen-2-ylsulfanyl}-2-methylpropionic acid]			−74%	−93%

More lines, main results first:

PPARδ FI (fold induction) [1]	PPARγ FI (fold induction) [2]	SMILES	Δ Plasma Glucose [3]	Δ Plasma Insulin [3]
2.5	4.0	CCCCCN(C(=O)Nc1ccc(SC(F)(F)F)cc1)C1Cc2ccc(SC(C)(C)C(=O)O)cc2C1 (stereo not drawn) [Example 5, 2-Methyl-2-{2-[1-pentyl-3-(4-trifluoromethylsulfanylphenyl)ureido]indan-5-ylsulfanyl}propionic acid]		
3.6	1.9	CCN(C(=O)Nc1ccc(C(C)C)cc1)C1Cc2ccc(SC(C)(C)C(=O)O)cc2C1 (stereo not drawn) [Example 6, 2-{2-[1-Ethyl-3-(4-isopropylphenyl)ureido]indan-5-ylsulfanyl}-2-methylpropionic acid]		
5.9	1.9	CCCCCN(C(=O)Nc1ccc(OC(F)(F)F)cc1)C1Cc2ccc(SC(C)(C)C(=O)O)cc2C1 (stereo not drawn) [Example 8, 2-Methyl-2-{2-[1-pentyl-3-(4-trifluoromethoxyphenyl)ureido]indan-5-ylsulfanyl}-2-methylpropionic acid]		
1.0	2.9	CCCCCN(C(=O)Nc1ccc(N(C)C)cc1)C1Cc2ccc(SC(C)(C)C(=O)O)cc2C1 (stereo not drawn) [Example 9, 2-{2-[3-(4-Dimethylaminophenyl)-1-pentylureido]indan-5-ylsulfanyl}-2-methylpropionic acid]		
	5.1	CCCCCN(C(=O)Nc1ccc(C(C)C)cc1)C1Cc2ccc(SC(C)(C)C(=O)O)cc2C1 (stereo not drawn) [Example 10, 2-{2-[3-(4-Isopropylphenyl)-1-(pentyl)ureido]indan-5-ylsulfanyl}-2-methylpropionic acid]		
	6.1	CCCCCN(C(=O)Nc1ccc(C(C)(C)C)cc1)C1Cc2ccc(SC(C)(C)C(=O)O)cc2C1 (stereo not drawn) [Example 11, 2-{2-[3-(4-tert-butylphenyl)-1-(pentyl)ureido]indan-5-ylsulfanyl}-2-methylpropionic acid]		
	1.2	CCCCCCN(C(=O)Nc1ccc(C(C)C)cc1)C1Cc2ccc(SC(C)(C)C(=O)O)cc2C1 (stereo not drawn) [Example 13, 2-{2-[3-(4-Isopropylphenyl)-1-(hexyl)ureido]indan-5-ylsulfanyl}-2-methylpropionic acid]		
1.3	0.3	CCCCCCN(C(=O)Nc1ccc(OC(F)(F)F)cc1)C1Cc2ccc(SC(C)(C)C(=O)O)cc2C1 (stereo not drawn) [Example 14, 2-Methyl-2-{2-[1-hexyl-3-(4-trifluoromethoxyphenyl)ureido]indan-5-ylsulfanyl}propionic acid]		
	0.05	CC(C)CCN(C(=O)Nc1ccc(C(C)C)cc1)C1Cc2ccc(SC(C)(C)C(=O)O)cc2C1 (stereo not drawn) [Example 21, 2-{2-[3-(4-Isopropylphenyl)-1-(3-methylbutyl)ureido]indan-5-ylsulfanyl}-2-methylpropionic acid]		

— US7351857B2, “Methods of using substituted tetralins and indanes” (Janssen Pharmaceutica N.V., priority 2002, dated 2008)
